These results are taken from ChEMBL document CHEMBL1201862, “PubChem BioAssay data set” (2004).

Test systems include ACHN; CCRF-CEM; DLD-1; EKVX; HCT-15; HOP-62; MOLT-4; Malme-3M; NCI-H522; SK-MEL-5; SN12C; SNB-19; SR; SW-620; UACC-62; BT-549; MCF7; MDA-MB-435; PC-3; T47D.
Holding throughout (test): NCI anticancer screen, dose series, 48 h

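Compound exposure: 48 hours, 5 concentrations, 96-well plates. Here, GI50 denotes the concentration required for 50% inhibition of growth.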 Activity calls are given as the source filed them. Cut-off read from the data, not from the text of the source: active = GI50 up to about 1.1 µM and inactive = higher.

Consider `CCc1cccc(CC)c1NC(=O)/C(Cl)=C(/Cl)C(=O)O`, for which the GI50 is 26.9 µM (inactive) in the assay on ACHN; 6.44 µM (inactive) with CCRF-CEM; 22.8 µM (inactive) in the assay on DLD-1; > 56.6 µM (inactive) in the assay with EKVX; 19.4 µM with HCT-15; > 100 µM (inactive) in the assay on HOP-62. Further, the GI50 with MOLT-4 is 9.25 µM (inactive); in the assay on Malme-3M, 19 µM (inactive); in the assay on NCI-H522, 10.2 µM (inactive); in the assay with SK-MEL-5 it was 36.7 µM (inactive); with SN12C, 31.1 µM (inactive); in the assay with SNB-19 it was > 100 µM (inactive). Besides, the GI50 was > 44.3 µM (inactive) with SR, 21.2 µM (inactive) with SW-620 and 37.4 µM (inactive) with UACC-62.
`COC(=O)C1C(O)CC(c2ccccn2)N(Cc2ccccc2)C1c1ccccn1` (stereo unspecified): the GI50 is > 100 µM (inactive) in the assay on ACHN; > 100 µM (inactive) with CCRF-CEM; > 100 µM (inactive) in the assay on DLD-1; > 100 µM (inactive) with EKVX; > 100 µM with HCT-15; > 100 µM (inactive) in the assay with HOP-62. The GI50 in the assay with MOLT-4 is 37.6 µM (inactive); in the assay with Malme-3M it was > 100 µM (inactive); with NCI-H522, > 100 µM (inactive); in the assay with SK-MEL-5, 84.3 µM (inactive); in the assay on SN12C it was > 100 µM (inactive); in the assay on SNB-19 it was > 100 µM (inactive). Moreover, the GI50 with SW-620 and with UACC-62 was > 100 µM (inactive) each time.
Consider `O=C(/C=C/c1ccccc1)/C=C/c1ccccc1O`, for which the GI50 in the assay with ACHN is 19.4 µM (inactive); with CCRF-CEM, 17 µM (inactive); with DLD-1 it was 18 µM (inactive); in the assay on EKVX it was 18.8 µM (inactive); in the assay with HCT-15, 15.9 µM; in the assay on HOP-62 it was 38.8 µM (inactive). Further, the GI50 in the assay with MOLT-4 was 19.8 µM (inactive); in the assay with Malme-3M it was < 0.01 µM (active); in the assay with NCI-H522, 15.5 µM (inactive); in the assay on SK-MEL-5 it was 20.1 µM (inactive); in the assay on SN12C, 16.2 µM (inactive); in the assay on SNB-19, 23.3 µM (inactive). Further, the results for the GI50 in the assay with SR, in the assay with SW-620 and with UACC-62 were 26.6 µM (inactive), 11.6 µM (inactive) and 19 µM (inactive), respectively.
In the case of `COC(=O)C1=C(c2cc(OC)c(OC)c(OC)c2)OC(c2cc(OC)c(OC)c(OC)c2)C1COC(C)=O` (stereo unspecified), the GI50 in the assay on ACHN is 30.1 µM (inactive); with CCRF-CEM, 41.8 µM (inactive); in the assay with DLD-1 it was 26.2 µM (inactive); with EKVX, > 100 µM (inactive); in the assay on HCT-15 it was 26.9 µM; with HOP-62 it was 36.6 µM (inactive). Besides, the GI50 was 20.8 µM (inactive) in the assay with MOLT-4; > 100 µM (inactive) with Malme-3M; 16.7 µM (inactive) in the assay with NCI-H522; 29.4 µM (inactive) with SK-MEL-5; 85.1 µM (inactive) in the assay on SN12C; > 100 µM (inactive) in the assay with SNB-19. The GI50 with SR is 16.7 µM (inactive); with SW-620 it was 87.5 µM (inactive); in the assay on UACC-62, 30.5 µM (inactive).
As to `CC1=C(C(=O)Nc2ccc([N+](=O)[O-])cc2)C(c2ccc(N(C)C)cc2)C(C(=O)Nc2ccc([N+](=O)[O-])cc2)=C(C)N1`, the GI50 in the assay with ACHN was 0.0475 µM (active); in the assay with CCRF-CEM it was 17.8 µM (inactive); with DLD-1, 11.9 µM (inactive); in the assay on EKVX, 25.4 µM (inactive); in the assay on HOP-62 it was 12.6 µM (inactive); with MOLT-4, 9.14 µM (inactive). Besides, the GI50 with Malme-3M was 23.3 µM (inactive); in the assay with NCI-H522, 11 µM (inactive); with SK-MEL-5, 15 µM (inactive); in the assay with SN12C, > 10 µM (inactive); with SNB-19 it was 36.4 µM (inactive); in the assay with SW-620 it was 23.9 µM (inactive).
With `COC(=O)c1ccc(Cc2ccc(C(=O)OC)o2)o1`, the GI50 in the assay on ACHN is > 378 µM (inactive); in the assay with CCRF-CEM, > 378 µM (inactive); with DLD-1, > 378 µM (inactive); in the assay on EKVX it was > 378 µM (inactive); in the assay on HCT-15 it was > 378 µM; in the assay on HOP-62 it was > 378 µM (inactive). Besides, the GI50 in the assay with MOLT-4 was > 378 µM (inactive); with Malme-3M it was > 378 µM (inactive); with NCI-H522, > 378 µM (inactive); in the assay with SK-MEL-5, > 378 µM (inactive); in the assay with SN12C, > 378 µM (inactive); in the assay with SNB-19, 327 µM (inactive). For the same compound, the GI50 with SR, in the assay on SW-620 and with UACC-62 was > 378 µM (inactive) each time.
Regarding `Cc1ccc(Nc2ccc(Nc3ccc(C)cc3)c3c2C(=O)c2c(O)ccc(O)c2C3=O)cc1`, the GI50 with ACHN was > 100 µM (inactive); in the assay with CCRF-CEM, 67.6 µM (inactive); with DLD-1, > 100 µM (inactive); in the assay on EKVX it was > 100 µM (inactive); in the assay on HCT-15, > 100 µM; in the assay on HOP-62, > 100 µM (inactive). The GI50 in the assay on MOLT-4 is > 100 µM (inactive); in the assay with Malme-3M, > 100 µM (inactive); with NCI-H522, 47.8 µM (inactive); in the assay with SK-MEL-5 it was > 100 µM (inactive); with SN12C, > 100 µM (inactive); with SNB-19, > 100 µM (inactive). Also, the GI50 in the assay with SW-620 and with UACC-62 was > 100 µM (inactive) throughout.
As for `CC1=C(C(=O)Nc2cccc(C(F)(F)F)c2)C(c2ccccc2F)C(C(=O)Nc2cccc(C(F)(F)F)c2)=C(C)N1`, the GI50 in the assay with ACHN was 4.2 µM (inactive); in the assay with CCRF-CEM, 3.09 µM (inactive); in the assay with DLD-1, 6.21 µM (inactive); in the assay with EKVX, 3.94 µM (inactive); with HOP-62, 12.9 µM (inactive); in the assay on MOLT-4, 2.6 µM (inactive). The GI50 was 7.08 µM (inactive) with Malme-3M; 4.79 µM (inactive) in the assay on NCI-H522; 5.43 µM (inactive) in the assay with SK-MEL-5; 7.96 µM (inactive) with SN12C; 7.16 µM (inactive) with SNB-19; 7.08 µM (inactive) in the assay with SW-620.
For `CC1=NN(C(=O)Cc2ccccc2)C(=O)/C1=C\c1ccc(O)cc1`, the GI50 was > 100 µM (inactive) in the assay with ACHN; > 100 µM (inactive) in the assay with CCRF-CEM; > 100 µM (inactive) in the assay with DLD-1; > 100 µM (inactive) with EKVX; > 100 µM in the assay with HCT-15; > 100 µM (inactive) in the assay with HOP-62. Besides, the GI50 in the assay on MOLT-4, in the assay on Malme-3M, in the assay on NCI-H522, in the assay with SK-MEL-5, in the assay on SN12C and with SNB-19 was > 100 µM (inactive) each time. The GI50 in the assay with SW-620 and with UACC-62 was > 100 µM (inactive) in each case.
On to `CN1CC(=O)N(C)c2ncn(Cc3ccccc3)c2C1=O`, for which the GI50 with ACHN is > 100 µM (inactive); in the assay on CCRF-CEM, > 100 µM (inactive); in the assay on DLD-1 it was > 100 µM (inactive); in the assay on EKVX, > 100 µM (inactive); with HCT-15, > 100 µM; with MOLT-4 it was > 100 µM (inactive). Further, the GI50 in the assay on Malme-3M, in the assay with SK-MEL-5, in the assay with SN12C, in the assay on SNB-19, in the assay with SR and in the assay on SW-620 was > 100 µM (inactive) throughout. For the same compound, the GI50 with UACC-62 is > 100 µM (inactive).
Turning to `Cc1nnc2n1N=C(c1ccccc1)/C(=C/c1ccc(-c3ccc(Cl)cc3)o1)S2`, the GI50 was 13.5 µM (inactive) with ACHN; 11.4 µM (inactive) in the assay on BT-549; 2.71 µM (inactive) in the assay with CCRF-CEM; 20 µM (inactive) in the assay with EKVX; 8.53 µM in the assay with HCT-15; 15.3 µM (inactive) in the assay with HOP-62. The GI50 is 2.11 µM (inactive) in the assay with MCF7; 4.61 µM (inactive) in the assay with MDA-MB-435; 3.55 µM (inactive) in the assay on MOLT-4; 17.3 µM (inactive) in the assay with Malme-3M; 10.6 µM (inactive) in the assay on NCI-H522; 11.9 µM (inactive) in the assay with PC-3. Also, the GI50 was 13.6 µM (inactive) in the assay on SK-MEL-5; 15.6 µM (inactive) in the assay with SN12C; 16.6 µM (inactive) with SNB-19; 5.77 µM (inactive) in the assay with SR; 5 µM (inactive) in the assay on SW-620; 5.22 µM (inactive) with T47D. The GI50 with UACC-62 was 12.4 µM (inactive).
`CCOC(=O)c1ccc(/N=c2\oc3ccc(OC)cc3cc2-c2nc3ccccc3[nH]2)cc1`: the GI50 in the assay on ACHN was > 100 µM (inactive); in the assay with BT-549, > 100 µM (inactive); with CCRF-CEM, > 100 µM (inactive); in the assay on EKVX, > 100 µM (inactive); in the assay with HCT-15 it was > 100 µM; in the assay on HOP-62 it was 54.6 µM (inactive). For the same compound, the GI50 in the assay with MCF7 was 36.5 µM (inactive); in the assay with MDA-MB-435, 30.5 µM (inactive); in the assay on MOLT-4 it was > 100 µM (inactive); in the assay with Malme-3M, > 100 µM (inactive); in the assay with NCI-H522 it was 71.6 µM (inactive); in the assay on PC-3, > 100 µM (inactive). Besides, the GI50 is 5.66 µM (inactive) with SK-MEL-5; > 100 µM (inactive) in the assay on SN12C; 42.9 µM (inactive) in the assay on SNB-19; 59.3 µM (inactive) in the assay on SR; 8.13 µM (inactive) in the assay with SW-620; > 100 µM (inactive) with T47D. The GI50 in the assay on UACC-62 is > 100 µM (inactive).
With `CC(Oc1ccccc1Cl)C(=O)NN1C(=O)CC(=O)N(c2ccc(Cl)cc2)C1=S` (stereo unspecified), the GI50 in the assay on ACHN is 37.4 µM (inactive); in the assay on BT-549 it was 55.1 µM (inactive); in the assay on CCRF-CEM, < 0.01 µM (active); in the assay on EKVX, 45.4 µM (inactive); with HCT-15, 36.6 µM; in the assay on HOP-62 it was 46.3 µM (inactive). The GI50 is 29.6 µM (inactive) in the assay on MCF7; 61 µM (inactive) with MDA-MB-435; 27.4 µM (inactive) in the assay with MOLT-4; > 100 µM (inactive) in the assay on Malme-3M; 23.3 µM (inactive) with NCI-H522; 38.1 µM (inactive) in the assay with PC-3. Further, the GI50 was 36 µM (inactive) with SK-MEL-5; 35.2 µM (inactive) in the assay with SN12C; 66.5 µM (inactive) in the assay with SNB-19; 8.77 µM (inactive) in the assay on SR; 52 µM (inactive) in the assay with SW-620; 34.6 µM (inactive) with T47D. Moreover, the GI50 with UACC-62 is 30.3 µM (inactive).
